In publication PMC10052035, “Virtual Screening, Structural Analysis, and Formation Thermodynamics of Carbamazepine Cocrystals” (Pharmaceutics, 2023):

Key:
[1] = Solubility of cocrystals and their constituents in organic solvents (shake-flask, HPLC); conditions: for solubility at 48 h: organic solvent or mixture, thermodynamic from solid
Method: For the [CBZ + 3AcAmBA] (1:1) cocrystal, methanol was used. For [CBZ + 4AcAmBA] (1:1), all the experiments were performed in acetonitrile. An excess of the solid was placed in an Eppendorf tube, and 2 mL of solvent was added. The resulting suspension was shaken in a ThermoMixer C (Eppendorf, Hamburg, Germany) at 800 rpm for 48 h at the specified temperature. Subsequently, the saturated solution was separated using a 0.22 μm PTEF filter, diluted, and analyzed using HPLC. The solid phases after the experiment were collected and characterized by PXRD. Each experiment was repeated three times.
The HPLC was performed on an LC-20 AD Shimadzu Prominence model (Shimadzu, Kyoto, Japan) equipped with a PDA detector and a Luna C-18 column (150 mm × 4.6 mm i.d., 5 μm particle size, and 100 Å pore size). The column temperature was set to 40 °C. To achieve the proper separation of the cocrystal components, different ratios of the mobile phase, consisting of acetonitrile and a 0.1% aqueous solution of trifluoroacetic acid (35:65 v/v), were used. The flow rate was 1.0 mL·min^−1, and the injection volume was 20 μL. The UV detection of carbamazepine, 2-acetamidobenzoic acid, 3-acetamidobenzoic acid, and 4-acetamidobenzoic acid was carried out at the wavelengths of 285 nm, 249 nm, 220 nm, and 266 nm, respectively.

[2] = parameters: method as in doi:10.1016/j.molliq.2021.118320; conditions: pH 2.0, 310.2 K; value belongs to the coformer of the cocrystal named in the row; ref [103]; cited from earlier work
[3] = type: physicochemical; conditions: for Scc, solubility of the cocrystal: pH 2; for [CF]eu, eutectic concentration of coformer / [CBZ]eu, eutectic concentration of CBZ / Keu, eutectic constant: pH 2.0, 310.2 K; for [CF]eu, eutectic concentration of coformer: eutectic point; for [CBZ]eu, eutectic concentration of CBZ: eutectic point (drug and cocrystal in equilibrium with solution); for Keu, eutectic constant: Keu = [CF]eu/[CBZ]eu
Method: The saturation shake-flask method was used to measure the aqueous solubility of the CBZ cocrystals in a pH 2.0 buffer solution at the eutectic point, where drug and cocrystal are in equilibrium with the solution. The eutectic point between the cocrystal and the drug was reached by suspending 80 mg of the cocrystal and 30 mg of CBZ in 2 mL of the buffer solution. The obtained suspension was stirred continuously for 72 h at 37.0 ± 0.1 °C. After equilibration, the final pH of the solution was measured. The suspension was diluted with the mobile phase after being filtered through a […] PTEF filter. Concentrations of compounds were analyzed by HPLC. The solid phases after the experiment were characterized by PXRD.
The column temperature was set to 40 °C.

[4] = Cocrystal formation thermodynamics from solubility data (Kf, ΔformG, ΔformH, ΔformS); type: physicochemical; conditions: for ΔformH: van't Hoff, 293.15-313.15 K
Excerpt: It is known that the relative stability of a cocrystal with respect to a physical mixture of the parent constituents at a given temperature can be quantitatively expressed in terms of the free-energy change, ΔformG, of the cocrystallization reaction. Analyzing the temperature dependence of the Gibbs formation energy can provide further information on the enthalpy and entropy contributions to the driving force of the process as well as help to estimate the thermodynamic transition temperature, which determines the stability domains of a cocrystal and its individual constituents. The experimental assessment of ΔformG is based on solubility data for the starting molecules and the corresponding cocrystal in the same solvent at a predetermined temperature using the equation below:(3) ΔformG=−RTlnap,Ax×ap,By/acc,Ax×acc,By=−RTlnap,Ax×ap,By/Ksp=−RTlnKf, where ap,A and ap,B represent the activities of pure A and B compounds in a saturated solution; acc,A and acc,B are the activities of the cocrystal components in a solution, in equilibrium with pure cocrystal; Ksp is the solubility product of a cocrystal; T is the temperature; x and y are the stoichiometric coefficients; and Kf is an equilibrium constant at the experimental temperature.
Using the van’t Hoff expression, the enthalpy of the cocrystallization process, ΔformH, may be estimated by evaluating the Kf values at various temperatures (assuming that ΔformH is a constant within the selected temperature range):(4) dlnKf/d(1/T)=−ΔformH/R
The entropy of cocrystal formation, ΔformS, can be estimated from (5) ΔformS=ΔformH−ΔformG/T
Even though the activities in Equation (3) are usually approximated by the corresponding molar concentration while neglecting the activity coefficients, a more valid approximation implies that the activity coefficients for the two solute species are constant along the cocrystal solubility line and equal to the activity coefficients of the pure components in the saturated solutions in the same solvent and temperature. […] Table S5 contains the solubility values of CBZ, coformers, and the CBZ cocrystals with emodin, paeonol, nicotinamide, and glutaric acid in various organic solvents.

[5] = Preliminary solution stability (congruent/incongruent dissolution) in organic solvents, PXRD of residual phases; type: physicochemical
Excerpt: The most convenient way to determine the solubility product of a cocrystal is to ensure that the solution and the cocrystal are at thermodynamic equilibrium, i.e., that the cocrystal is congruently soluble in the chosen solvent. In this work, acetonitrile was primarily utilized as a medium to carry out solubility experiments. […] (1:1) and [CBZ + 3AcAmBA] […] In the case of [CBZ + 3AcAmBA] (1:1), incongruent solubility of the cocrystal was expected given the high solubility ratio of the components in acetonitrile (Table S6). This is likely to result in an asymmetric ternary phase diagram with a narrow stability region for the [CBZ + 3AcAmBA] (1:1) cocrystal. […] It is reasonable to assume that the poor solution stability of the [CBZ + 2AcAmBA] (1:1) cocrystal is not due to the large solubility difference between CBZ and 2AcAmBA but rather because of the low intrinsic thermodynamic stability of the binary solid form caused by the lack of energy gain associated with cocrystal formation, which leads to a higher solubility in all solvents considered. […] (1:1) cocrystal compared to the parent pure components (~40 °C, Figure S2), implicitly corroborate this supposition. Since no suitable solvent for solubility studies of [CBZ + 2AcAmBA] (1:1) could be found, this system was not further explored. The [CBZ + 3AcAmBA]

[6] = acetonitrile, 293.15 K, value is C∙10^2
[7] = 298.2K, listed as [CBZ+4AcAmBA] (1:1)
[8] = acetonitrile, 298.15 K, value is C∙10^2
[9] = acetonitrile, 303.15 K, value is C∙10^2
[10] = acetonitrile, 308.15 K, value is C∙10^2
[11] = acetonitrile, 313.15 K, value is C∙10^2

For CC(=O)Nc1ccc(C(=O)O)cc1 [Cocrystal 4AcAmBA, 4-acetamidobenzoic acid], the “solubility ratio Cp,CBZ/Cp,coformer” value ([1]; 48 h) was 14.1, the solubility at 48 h ([1]; acetonitrile, 20 °C) was 10.1 ± 0.1 mM and the solubility at 48 h ([1]; acetonitrile, 25 °C) was 11.45 ± 0.05 mM. It also gave a solubility at 48 h ([1]; acetonitrile, 30 °C) of 12.8 ± 0.07 mM, a solubility at 48 h ([1]; acetonitrile, 35 °C) of 14.73 ± 0.07 mM and a solubility at 48 h ([1]; acetonitrile, 40 °C) of 16.6 ± 0.3 mM. For the same molecule, the “Cp∙10^2, solubility of pure component” value [1, 6] was 1.010±0.010 mol/l and the “S0(CF), intrinsic solubility of coformer” value [2] was 4.6 mM.
For CC(=O)Nc1ccc(C(=O)O)cc1.NC(=O)N1c2ccccc2C=Cc2ccccc21 [[CBZ + 4AcAmBA] (1:1)], the “Scc, solubility of the cocrystal” value [3] was “(0.80 ± 0.02)·10^−3 Mol·L^−1”, the “[CF]eu, eutectic concentration of coformer” value [3] was “(6.4 ± 0.2)·10^−4 Mol·L^−1” and the “[CBZ]eu, eutectic concentration of CBZ” value [3] was “(1.00 ± 0.05)·10^−3 Mol·L^−1”. For the same molecule, the “Keu, eutectic constant” value [3] was 0.64 ± 0.04, the “T·ΔformS” value ([4]; 298.2K) was -0.574 ± 0.14 kcal/mol and the lnKf ([4]; 298.2K) was 2.86 ± 0.03. For the same molecule, the ΔformG ([4]; 298.2K) was -1.69 ± 0.019 kcal/mol, the “T·ΔformS” value [4, 7] was -0.574 ± 0.14 kcal/mol and the ΔformG [4, 7] was -1.69 ± 0.019 kcal/mol. For the same molecule, the ΔformH ([4]; 298.2K) was -2.27 ± 0.14 kcal/mol, the ΔformH [4, 7] was -2.27 ± 0.14 kcal/mol and the lnKf ([4]; acetonitrile, 293.15 K) was 2.93±0.04. For the same molecule, the “∆formG” value ([4]; acetonitrile, 293.15 K) was -1.7 ± 0.022 kcal/mol, the lnKf ([4]; acetonitrile, 298.15 K) was 2.86±0.03 and the “∆formG” value ([4]; acetonitrile, 298.15 K) was -1.69 ± 0.019 kcal/mol. The lnKf ([4]; acetonitrile, 303.15 K) was 2.82±0.03, the “∆formG” value ([4]; acetonitrile, 303.15 K) was -1.7 ± 0.017 kcal/mol and the lnKf ([4]; acetonitrile, 308.15 K) was 2.75±0.02. The “∆formG” value ([4]; acetonitrile, 308.15 K) was -1.68 ± 0.012 kcal/mol, the lnKf ([4]; acetonitrile, 313.15 K) was 2.67±0.03 and the “∆formG” value ([4]; acetonitrile, 313.15 K) was -1.66 ± 0.019 kcal/mol. For the same molecule, the “Ccc,4AcAmBA∙10^2, coformer concentration in equilibrium with cocrystal” value (shortened to “Ccc,4AcAmBA∙10^2, coformer concentration”) [1, 6] was 0.880±0.016 mol/l, the “Ccc,CBZ∙10^2, CBZ concentration in equilibrium with cocrystal” value (“Ccc,CBZ∙10^2, CBZ concentration” below) [1, 6] was 0.875±0.014 mol/l and the “Ccc,4AcAmBA∙10^2, coformer concentration” value [1, 8] was 1.046±0.010 mol/l. For the same molecule, the “Ccc,CBZ∙10^2, CBZ concentration” value [1, 8] was 1.013±0.015 mol/l, the “Ccc,4AcAmBA∙10^2, coformer concentration” value [1, 9] was 1.222±0.017 mol/l and the “Ccc,CBZ∙10^2, CBZ concentration” value [1, 9] was 1.198±0.007 mol/l. For the same molecule, the “Ccc,4AcAmBA∙10^2, coformer concentration” value [1, 10] was 1.472±0.008 mol/l, the “Ccc,CBZ∙10^2, CBZ concentration” value [1, 10] was 1.428±0.009 mol/l and the “Ccc,4AcAmBA∙10^2, coformer concentration” value [1, 11] was 1.707±0.030 mol/l. For the same molecule, the “Ccc,CBZ∙10^2, CBZ concentration” value [1, 11] was 1.684±0.022 mol/l.
With CC(=O)Nc1ccccc1C(=O)O.NC(=O)N1c2ccccc2C=Cc2ccccc21 [[CBZ + 2AcAmBA] (1:1)] the “Scc, solubility of the cocrystal” value [3] was “(2.8 ± 0.1)·10^−3 Mol·L^−1”, the “[CF]eu, eutectic concentration of coformer” value [3] was “(7.5 ± 0.1)·10^−3 Mol·L^−1” and the “[CBZ]eu, eutectic concentration of CBZ” value [3] was “(1.10 ± 0.06)·10^−3 Mol·L^−1”. The “Keu, eutectic constant” value [3] was 6.8 ± 0.4, the “dissolution behaviour / solution stability” value ([5]; acetonitrile) was “dissolved incongruently” and the “dissolution behaviour / solution stability” value ([5]; several other tested solvents, including methanol, ethanol, and acetone) was “incongruent behavior”.
